From BindingDB's records for doi:10.7270/Q2PK0DK8 (Nmmlsc, 2009) come the findings set out here.

Molecules are shown by their SMILES. pEC50: −log10 of the molar value.

For the assay, the target named is Ras-related C3 botulinum toxin substrate 1 (Mus musculus, UniProt P63001). The experiment in a line: wildtype Rac1 GTP binding inhibitors, SAR follow-up, biochemical, oxadiazole analogs, multiplex bead flow cytometry (AID 2027). Background: In flow cytometry, cells or beads pass a laser one at a time.
The mark [1] stands for this setting: inactive by the depositor's call.

For orientation: pEC50 means −log10 of the EC50, conventionally taken in molar units. Low readings indicate a large EC50, high ones a small EC50. `COc1cccc(-c2noc(CCC(=O)N3CCN(c4cc(C)ccc4C)CC3)n2)c1` showed a pEC50 of 5.21. Still for that read-out and setting: the figure for `Cc1ccc(C)c(N2CCN(C(=O)CCc3nc(-c4ccccc4C)no3)CC2)c1` is 5.76; for `COc1ccc(-c2noc(CCC(=O)N3CCN(c4cccc(Cl)c4)CC3)n2)cc1` it is less than 4.52; for `Cc1ccc(C)c(N2CCN(C(=O)CCc3nc(-c4ccccc4C(F)(F)F)no3)CC2)c1` it is 5.68. Still for that read-out and setting: next, `COc1ccc(-c2noc(CCC(=O)N3CCN(c4ccccc4C)CC3)n2)cc1`: 5.87; `COc1ccc(-c2ccc(CCC(=O)N3CCN(c4cc(C)ccc4C)CC3)s2)cc1`: less than 4.52; `COc1ccc(-c2noc(CCC(=O)N3CCN(c4cccc(C)c4C)CC3)n2)cc1` [1-[4-(2,3-dimethylphenyl)-1-piperazinyl]-3-[3-(4-methoxyphenyl)-1,2,4-oxadiazol-5-yl]-1-propanone]: 5.88. On the same count and under the same terms, next, `COc1ccc(-c2noc(CCC(=O)N3CCN(c4cc(C)ccc4C)CC3)n2)cc1` [1-[4-(2,5-dimethylphenyl)-1-piperazinyl]-3-[3-(4-methoxyphenyl)-1,2,4-oxadiazol-5-yl]-1-propanone]: 5.29. With `Cc1ccc(-c2noc(CCC(=O)N3CCN(c4cc(C)ccc4C)CC3)n2)cc1` [1-[4-(2,5-dimethylphenyl)-1-piperazinyl]-3-[3-(4-methylphenyl)-1,2,4-oxadiazol-5-yl]-1-propanone], the pEC50 is 5.49. On the same count and under the same terms, the figure for `Cc1ccc(C)c(N2CCN(C(=O)CCc3nc(-c4ccc(C(F)(F)F)cc4)no3)CC2)c1` [1-[4-(2,5-dimethylphenyl)-1-piperazinyl]-3-[3-[4-(trifluoromethyl)phenyl]-1,2,4-oxadiazol-5-yl]-1-propanone] is 5.66; for `COc1ccc(-c2noc(CCCCC(=O)N3CCN(c4cc(C)ccc4C)CC3)n2)cc1` [1-[4-(2,5-dimethylphenyl)-1-piperazinyl]-5-[3-(4-methoxyphenyl)-1,2,4-oxadiazol-5-yl]-1-pentanone] it is 4.68. `COc1ccc(-c2noc(CC(=O)N3CCN(c4cc(C)ccc4C)CC3)n2)cc1` [1-[4-(2,5-dimethylphenyl)piperazin-1-yl]-2-[3-(4-methoxyphenyl)-1,2,4-oxadiazol-5-yl]ethanone]: the pEC50 under setting [1] is 5.12. For `Cc1cccc(-c2noc(CCC(=O)N3CCN(c4cc(C)ccc4C)CC3)n2)c1` [1-[4-(2,5-dimethylphenyl)piperazin-1-yl]-3-[3-(3-methylphenyl)-1,2,4-oxadiazol-5-yl]propan-1-one], the pEC50 was 5.92. Same read-out and setting: next, `COc1ccc(-c2cc(CCC(=O)N3CCN(c4cc(C)ccc4C)CC3)on2)cc1` [1-[4-(2,5-dimethylphenyl)piperazin-1-yl]-3-[3-(4-methoxyphenyl)-1,2-oxazol-5-yl]propan-1-one]: less than 4.52; `COc1ccc(-c2coc(CCC(=O)N3CCN(c4cc(C)ccc4C)CC3)n2)cc1` [1-[4-(2,5-dimethylphenyl)piperazin-1-yl]-3-[4-(4-methoxyphenyl)-1,3-oxazol-2-yl]propan-1-one]: 5.66. `COc1ccc(-c2ccc(CCC(=O)N3CCN(c4cc(C)ccc4C)CC3)[nH]2)cc1` [1-[4-(2,5-dimethylphenyl)piperazin-1-yl]-3-[5-(4-methoxyphenyl)-1H-pyrrol-2-yl]propan-1-one]: the pEC50 was less than 4.52. The same measure, in the same setting: the figure for `COc1ccc(-c2noc(CCC(=O)N3CCN(c4ccccc4Cl)CC3)n2)cc1` [1-[4-(2-chlorophenyl)piperazin-1-yl]-3-[3-(4-methoxyphenyl)-1,2,4-oxadiazol-5-yl]propan-1-one] is 5.48; for `COc1ccc(-c2noc(CCC(=O)N3CCN(c4ccccc4F)CC3)n2)cc1` [1-[4-(2-fluorophenyl)piperazin-1-yl]-3-[3-(4-methoxyphenyl)-1,2,4-oxadiazol-5-yl]propan-1-one] it is 5.96. Same read-out and setting: the figure for `COc1ccc(-c2noc(CCC(=O)N3CCN(c4cccc(Br)c4)CC3)n2)cc1` [1-[4-(3-bromophenyl)-1-piperazinyl]-3-[3-(4-methoxyphenyl)-1,2,4-oxadiazol-5-yl]-1-propanone] is less than 4.52; for `COc1ccc(-c2noc(CCC(=O)N3CCN(c4cccc(F)c4)CC3)n2)cc1` [1-[4-(3-fluorophenyl)piperazin-1-yl]-3-[3-(4-methoxyphenyl)-1,2,4-oxadiazol-5-yl]propan-1-one] it is less than 4.52. Regarding `COc1ccc(-c2noc(CCC(=O)N3CCN(c4ccc(Br)cc4)CC3)n2)cc1` [1-[4-(4-bromophenyl)piperazin-1-yl]-3-[3-(4-methoxyphenyl)-1,2,4-oxadiazol-5-yl]propan-1-one], under setting [1], the pEC50 is 6.59.

In the case of `COc1ccc(-c2noc(CCC(=O)N3CCN(c4cccc(C(F)(F)F)c4)CC3)n2)cc1` [1-{3-[3-(4-methoxyphenyl)-1,2,4-oxadiazol-5-yl]propanoyl}-4-[3-(trifluoromethyl)phenyl]piperazine], the pEC50 was less than 4.52.

Molecule `Cc1ccc(C)c(N2CCN(C(=O)CCc3nc(-c4ccccc4Br)no3)CC2)c1` [3-[3-(2-bromophenyl)-1,2,4-oxadiazol-5-yl]-1-[4-(2,5-dimethylphenyl)-1-piperazinyl]-1-propanone] had a pEC50 of 5.77. Still for that read-out and setting: next, `Cc1ccc(C)c(N2CCN(C(=O)CCc3nc(-c4ccccc4Cl)no3)CC2)c1` [3-[3-(2-chlorophenyl)-1,2,4-oxadiazol-5-yl]-1-[4-(2,5-dimethylphenyl)-1-piperazinyl]-1-propanone]: 5.92; `COc1ccc(-c2noc(CCC(=O)N3CCN(c4ccccc4)CC3)n2)cc1` [3-[3-(4-methoxyphenyl)-1,2,4-oxadiazol-5-yl]-1-(4-phenylpiperazin-1-yl)propan-1-one]: less than 4.52. In the case of `COc1ccc(-c2noc(CCC(=O)N3CCN(c4ccccc4OC)CC3)n2)cc1` [3-[3-(4-methoxyphenyl)-1,2,4-oxadiazol-5-yl]-1-[4-(2-methoxyphenyl)-1-piperazinyl]-1-propanone], the negative logarithm of the EC50 (pEC50) under setting [1] was 5.64. On the same count and under the same terms, next, `COc1ccc(-c2noc(CCC(=O)N3CCN(c4ccc(OC)cc4)CC3)n2)cc1` [3-[3-(4-methoxyphenyl)-1,2,4-oxadiazol-5-yl]-1-[4-(4-methoxyphenyl)piperazin-1-yl]propan-1-one]: 6.28; `COc1ccc(-c2noc(CCC(=O)N3CCN(c4ccc(C)cc4)CC3)n2)cc1` [3-[3-(4-methoxyphenyl)-1,2,4-oxadiazol-5-yl]-1-[4-(4-methylphenyl)piperazin-1-yl]propan-1-one]: 5.57. Molecule `COc1ccc(-c2noc(CCC(=O)N3CCN(c4ccc(C(F)(F)F)cc4)CC3)n2)cc1` [3-[3-(4-methoxyphenyl)-1,2,4-oxadiazol-5-yl]-1-[4-[4-(trifluoromethyl)phenyl]piperazin-1-yl]propan-1-one] had a pEC50 of less than 4.52. Same read-out and setting: next, `COc1ccc(-c2noc(CCC(=O)N3CCN(c4cccc(OC)c4)CC3)n2)cc1` [KUC103349N]: less than 4.52; `COc1ccc(-c2noc(CCCC(=O)N3CCN(c4cc(C)ccc4C)CC3)n2)cc1` [KUC103353N]: 5.42; `Cc1ccc(C)c(N2CCN(C(=O)CCc3nc(-c4ccc(F)cc4)no3)CC2)c1` [KUC103364N]: 5.90. As for `Cc1ccc(C)c(N2CCN(C(=O)CCc3nc(-c4cccc(F)c4)no3)CC2)c1` [KUC103366N], the pEC50 is 5.83. For `Cc1ccc(C)c(N2CCN(C(=O)CCc3nc(-c4cccc(Br)c4)no3)CC2)c1` [KUC103367N], the pEC50 was 5.78. Same read-out and setting: next, `COc1ccc(-c2noc(CCC(=O)N3CCN(c4ccccc4Br)CC3)n2)cc1` [KUC103370N]: 5.77; `Cc1ccc(C)c(N2CCN(C(=O)CCc3nc(-c4cccc(C(F)(F)F)c4)no3)CC2)c1` [KUC103380N]: 5.60. `COc1ccc(-c2noc(CCC(=O)N3CCN(c4ccc(F)cc4)CC3)n2)cc1` [KUC103398N] showed a pEC50 under setting [1] of 5.80. In turn, `Cc1ccc(C)c(N2CCN(C(=O)CCc3nc(-c4ccccc4F)no3)CC2)c1` [KUC103401N] showed a pEC50 of 5.74. Still for that read-out and setting: next, `Cc1ccc(C)c(N2CCN(C(=O)CCc3nc(-c4ccc(N(C)C)cc4)no3)CC2)c1` [KUC103409N]: 5.56.

In turn, `COc1ccc(-c2noc(CCC(=O)N3CCC(c4cc(C)ccc4C)CC3)n2)cc1` [KUC103432N] showed a pEC50 of 5.92.

The molecule `COc1ccc(-c2ccc(CCC(=O)N3CCN(c4cc(C)ccc4C)CC3)o2)cc1` [KUC103447N] had a pEC50 of less than 4.52. `Cc1ccc(C)c(N2CCN(C(=O)CCc3nc(-c4ccccc4)no3)CC2)c1` [UNM-0000306070] had a pEC50 under setting [1] of 5.78.

Molecule `COc1ccccc1-c1noc(CCC(=O)N2CCN(c3cc(C)ccc3C)CC2)n1` [UNM-0000306071] gave a pEC50 under setting [1] of 4.82. `Cc1ccc(C)c(N2CCN(C(=O)CCc3nc(-c4ccc(Br)cc4)no3)CC2)c1` [UNM-0000306072] showed a negative logarithm of the EC50 (pEC50) of 5.53. In turn, `COc1ccc(-c2noc(CCC(=O)N3CCN(c4ccccc4C(F)(F)F)CC3)n2)cc1` [UNM-0000306082] had a pEC50 of 5.77. `Cc1ccc(C)c(N2CCN(C(=O)CCc3nc(-c4ccc(Cl)cc4)no3)CC2)c1` [UNM-0000306083] had a pEC50 of 5.74. Take `Cc1ccc(C)c(N2CCN(C(=O)CCc3nc(-c4cccc(Cl)c4)no3)CC2)c1` [UNM-0000306086]: the pEC50 was 5.30. Molecule `COc1ccc(-c2noc(CCC(=O)N3CCN(c4ccc(Cl)cc4)CC3)n2)cc1` [UNM-0000306121] had a pEC50 of less than 4.52. In turn, `COc1ccc(-c2noc(CCC(=O)N3CCN(c4cccc(C)c4)CC3)n2)cc1` [UNM-0000306125] showed a pEC50 of less than 4.52. The molecule `COc1ccc(-c2cccc(CCC(=O)N3CCN(c4cc(C)ccc4C)CC3)c2)cc1` [UNM-0000306127] gave a pEC50 of less than 4.52. Molecule `COc1ccc(-c2cc(CCC(=O)N3CCN(c4cc(C)ccc4C)CC3)[nH]n2)cc1` [UNM-0000306150] gave a pEC50 of less than 4.52.
